Like-named read-outs stand apart in the source and are kept apart here.
Columns and labels:
[1] = In Vitro Microsome Stability Assay (human); type: in vitro ADME
Procedure, shortened: (§1)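 Test article, added from a 0.25 mM DMSO stock, was incubated with liver microsomes (20 mg/mL stock) in 0.1 M potassium phosphate at 37° C, with the reaction started by NADPH. Samples were quenched with acetonitrile containing internal standard at 0 and 30 min and analysed by LC-MS/MS. Values are % remaining at 30 min versus 0 min, using IS-normalised AUC ratios.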

[2] = system: multiple myeloma cell line U266B1; experiment: U266 Cell Viability Assay; type: cell-based, human; conditions: Homo sapiens, U-266, 48 hr
Procedure, shortened: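 Viability was measured by CellTiter-Glo luminescence after 48 h compound exposure at 37° C, 5% CO2. The cells were U266B1 multiple myeloma cells grown in RPMI 1640 plus 10% FBS. Where stereochemistry is not shown, values apply to the stereoisomer mixture.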

[3] = system: full length TNFα (amino acids 1-233) fused to Gaussia Luciferase; experiment: Dox Induced TNFα-FL-Gluc Assay; type: cell-based; conditions: 24 hr, read-out: 24 hr Dox Inducible TNFaFLGluc 293FRT/TO: Mean IC50
Procedure, shortened: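 Compounds diluted in DMSO/medium with doxycycline were incubated at 37° C, 5% CO2 with 293 T-REx cells stably carrying a Tet-regulated TNFα(1-233)-Gaussia luciferase construct. Data for structures drawn without stereochemistry refer to stereoisomer mixtures.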

[4] = system: multiple myeloma cell line NCl-H929; experiment: H929 Cell Viability Assay; type: cell-based, human; conditions: Homo sapiens, NCI-H929, 48 h
Procedure, shortened: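 Viability was determined by CellTiter-Glo luminescence after a 48 h, 37 °C exposure of NCI-H929 cells to serial compound dilutions in medium containing 10% FBS. Where stereochemistry is not shown, values refer to a mix of stereoisomers.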

[5] = system: full length IL-2 (amino acids 1-153) fused to Gaussia Luciferase; experiment: Dox Induced IL2-FL-Gluc Assay; type: cell-based; conditions: 24 hr, read-out: 24 hr Dox Inducible IL2FLGluc 293FRT/TO: Mean IC50
Description: FIp-In 293 T-REx™ cells were transfected with pcDNA™5/FRT/TO plasmid inserted with cDNA encoding Gaussia Luciferase fused to the 3′ end of cDNA encoding full length IL-2 (amino acids 1-153). Transfected cells were selected for resistance to the selectable markers Hygromycin and Blasticidin to create a stable cell line that contained the IL-2-FL/Gaussia Luciferase cDNA insert whose expression was regulated under the T-REx™ system. The day before assay, cells were trypsinized and plated in 384-well tissue culture plates. The next day, compound dilutions in DMSO/media containing doxycycline were added to the wells and incubated at 37° C., 5% CO2.
For chemical structures that include one or more stereoisomers, but are illustrated without indicating stereochemistry, the assay data refers to a mixture of stereoisomers.

[6] = In Vitro Microsome Stability Assay (mouse); type: in vitro ADME
Procedure, shortened: as §1

[7] = system: PD1 signal sequence plus 10 amino acids fused to Gaussia Luciferase (PD1-ss+10aa/Gaussia Luciferase); experiment: Dox Induced PD1-ss-Gluc Assay; type: cell-based; conditions: 24 hr, read-out: 24 hr Dox Inducible PD1ssGluc 293FRT/TO: Mean IC50
Procedure, shortened: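 Compound dilutions in DMSO/media containing doxycycline were applied to a stable, inducible 293 T-REx line carrying the luciferase fusion, then incubated at 37 °C, 5% CO2. Where stereochemistry is not drawn, values relate to isomer mixtures.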

[8] = In Vitro Microsome Stability Assay (monkey); type: in vitro ADME
Procedure, shortened: as §1

[9] = In Vitro Microsome Stability Assay (rat); type: in vitro ADME
Procedure, shortened: as §1

[10] = human liver microsomes, 30 min w/ NADPH
[11] = mouse liver microsomes, 30 min w/ NADPH
[12] = monkey liver microsomes, 30 min w/ NADPH
[13] = rat liver microsomes, 30 min w/ NADPH
[14] = U266, read-out: 48 hr U266 Viability Celltiter-Glo: Mean EC50
[15] = H929, read-out: 48 hr H929 Viability Celltiter-Glo: Mean EC50

| Structure (SMILES) | Liver Microsome Stability-% Left after 30 min w/ NADPH (%) Human [1, 10] [%] | EC50 ([2]; U266, Celltiter-Glo) [nM] | IC50 ([3]; Dox inducible, 293FRT/TO cells) [nM] | EC50 ([4]; H929, Celltiter-Glo) [nM] | IC50 ([5]; Dox inducible, 293FRT/TO cells) [nM] | Liver Microsome Stability-% Left after 30 min w/ NADPH (%) Mouse [6, 11] [%] | IC50 ([7]; Dox inducible, 293FRT/TO cells) [nM] | Liver Microsome Stability-% Left after 30 min w/ NADPH (%) Monkey [8, 12] [%] | Liver Microsome Stability-% Left after 30 min w/ NADPH (%) Rat [9, 13] [%] | Liver Microsome Stability-% Left after 30 min w/ NADPH (%) Human ([1]; human, 30 min, NADPH) [%] | EC50 [2, 14] [nM] | IC50 ([3]; 293FRT/TO) [nM] | EC50 [4, 15] [nM] | IC50 ([5]; 293FRT/TO) [nM] | Liver Microsome Stability-% Left after 30 min w/ NADPH (%) Mouse ([6]; mouse, 30 min, NADPH) [%] | IC50 ([7]; 293FRT/TO) [nM] | Liver Microsome Stability-% Left after 30 min w/ NADPH (%) Monkey ([8]; monkey, 30 min, NADPH) [%] | Liver Microsome Stability-% Left after 30 min w/ NADPH (%) Rat ([9]; rat, 30 min, NADPH) [%] |
| --- | --- | --- | --- | --- | --- | --- | --- | --- | --- | --- | --- | --- | --- | --- | --- | --- | --- | --- |
| C[C@H]1CN(S(=O)(=O)c2ccc(N(C)C)cc2)CCCN(CC(F)(F)F)CCCN(S(=O)(=O)N2CCc3cc(Cl)ccc3C2)C1 [A167, 4-{[(3S)-5-[(6-chloro-1,2,3,4-tetrahydroisoquinolin-2-yl)sulfonyl]-3-methyl-9-(2,2,2-trifluoroethyl)-1,5,9-triazacyclododecan-1-yl]sulfonyl}-N,N-dimethylaniline] | 5.68 | > 25000 | 2660 | 6500 | 412 | 18.3 | 201 | 73 | 9.19 | – | – | – | – | – | – | – | – | – |
| C[C@H]1CN(S(=O)(=O)c2ccc(N(C)C)cc2)CCCN(CC2=CCCCC2)CCCN(S(=O)(=O)N2CCc3cc(Cl)ccc3C2)C1 [A135, 4-{[(3S)-5-[(6-chloro-1,2,3,4-tetrahydroisoquinolin-2-yl)sulfonyl]-9-[(cyclohex-1-en-1-yl)methyl]-3-methyl-1,5,9-triazacyclododecan-1-yl]sulfonyl}-N,N-dimethylaniline] | 9.36 | > 25000 | 625 | 1240 | 48.6 | 26.1 | 21.6 | 39.2 | 56.3 | – | – | – | – | – | – | – | – | – |
| COc1cc(F)ccc1C1CN(S(=O)(=O)N2CCCN(CC3CCCCC3)CCCN(S(=O)(=O)c3ccc(N(C)C)cc3)C[C@H](C)C2)C1 [A178, 4-{[(3S)-9-(cyclohexylmethyl)-5-{[3-(4-fluoro-2-methoxyphenyl)azetidin-1-yl]sulfonyl}-3-methyl-1,5,9-triazacyclododecan-1-yl]sulfonyl}-N,N-dimethylaniline] | 24.0 | > 25000 | 4820 | > 25000 | 255 | 22.8 | 135 | 25.8 | 29.2 | – | – | – | – | – | – | – | – | – |
| COCCN1CCCN(S(=O)(=O)c2ccc(N(C)C)cc2)C[C@H](C)CN(S(=O)(=O)N2CCc3cc(Cl)ccc3C2)CCC1 [A140, 4-{[(3S)-5-[(6-chloro-1,2,3,4-tetrahydroisoquinolin-2-yl)sulfonyl]-9-(2-methoxyethyl)-3-methyl-1,5,9-triazacyclododecan-1-yl]sulfonyl}-N,N-dimethylaniline] | 0.41 | > 25000 | 3010 | > 25000 | 808 | 3.68 | 492 | 1.56 | 0.56 | – | – | – | – | – | – | – | – | – |
| CC(C)CN1CCCN(S(=O)(=O)c2ccc(N(C)C)cc2)C[C@H](C)CN(S(=O)(=O)N2CCc3cc(Cl)ccc3C2)CCC1 [A152] | 3.69 | > 25000 | 1030 | 2170 | 174 | 5.06 | 81.5 | 3.22 | 3.6 | – | – | – | – | – | – | – | – | – |
| CCC(C)CN1CCCN(S(=O)(=O)c2ccc(N(C)C)cc2)C[C@H](C)CN(S(=O)(=O)N2CCc3cc(Cl)ccc3C2)CCC1 (stereo partly drawn) [A106, 4-{[(3S)-5-[(6-chloro-1,2,3,4-tetrahydroisoquinolin-2-yl)sulfonyl]-3-methyl-9-(2-methylbutyl)-1,5,9-triazacyclododecan-1-yl]sulfonyl}-N,N-dimethylaniline] | 7.18 | > 25000 | 1120 | 903 | 126 | 8.81 | 52.4 | 30.7 | 18.9 | – | – | – | – | – | – | – | – | – |
| Cc1cccc(CN2CCCN(S(=O)(=O)c3ccc(N(C)C)cc3)C[C@H](C)CN(S(=O)(=O)N3CCc4cc(Cl)ccc4C3)CCC2)c1 [A156, 4-{[(3S)-5-[(6-chloro-1,2,3,4-tetrahydroisoquinolin-2-yl)sulfonyl]-3-methyl-9-[(3-methylphenyl)methyl]-1,5,9-triazacyclododecan-1-yl]sulfonyl}-N,N-dimethylaniline] | 81.3 | > 25000 | 1830 | 3710 | 207 | 75.6 | 92.5 | 80.6 | 82.1 | – | – | – | – | – | – | – | – | – |
| C[C@H]1CN(S(=O)(=O)c2ccc(N(C)C)cc2)CCCN(CC2CCCCC2)CCCN(S(=O)(=O)N2CCN(c3cccc(F)c3)CC2)C1 [A95, 4-{[(3S)-9-(cyclohexylmethyl)-5-{[4-(3-fluorophenyl)piperazin-1-yl]sulfonyl}-3-methyl-1,5,9-triazacyclododecan-1-yl]sulfonyl}-N,N-dimethylaniline] | – | – | – | – | – | – | – | – | – | 43.9 | > 25000 | 4900 | 6710 | 391 | 54.2 | 198 | 46.1 | 43.1 |
| C[C@H]1CN(S(=O)(=O)c2ccc(N(C)C)cc2)CCCN(CCC(F)(F)F)CCCN(S(=O)(=O)N2CCc3cc(Cl)ccc3C2)C1 [A165, 4-{[(3S)-5-[(6-chloro-1,2,3,4-tetrahydroisoquinolin-2-yl)sulfonyl]-3-methyl-9-(3,3,3-trifluoropropyl)-1,5,9-triazacyclododecan-1-yl]sulfonyl}-N,N-dimethylaniline] | 2.23 | > 25000 | 1860 | 4090 | 294 | 14.9 | 131 | 12.8 | 11.9 | – | – | – | – | – | – | – | – | – |
| C[C@H]1CN(S(=O)(=O)c2ccc(N(C)C)cc2)CCCN(CC2CCCCC2)CCCN(S(=O)(=O)N2CCC(Oc3ccccc3)CC2)C1 [A92, 4-{[(3S)-9-(cyclohexylmethyl)-3-methyl-5-[(4-phenoxypiperidin-1-yl)sulfonyl]-1,5,9-triazacyclododecan-1-yl]sulfonyl}-N,N-dimethylaniline] | – | – | – | – | – | – | – | – | – | 44.3 | > 25000 | > 25000 | > 25000 | 519 | 40.8 | 304 | 40.4 | 51.8 |
